From patent publication US4448729A, “Leucotriene antagonists” (American Home Products Corporation, priority 1982, dated 1984)
Counter-ions that a name gives are not always drawn. Like-named read-outs stand apart in the source and are kept apart here.

Columns and labels:
[1] = tested on: sensitized guinea pig trachea; assay: Schultz-Dale reaction, sensitized guinea pig trachea (tracheal spirals), ovalbumin challenge; format: cell-based; conditions: Cavia porcellus; for inhibition at 10 µM: 10^-5 M; for inhibition at 1 µM: 10^-6 M
Description: The antiallergy activity of the compounds of this invention was established by the Schultz-Dale reaction employing sensitized guinea pig trachea by the following procedure:
(§1) Guinea pigs weighing from about 275 to 325 g. are sensitized to ovalbumin. Three to four weeks later, tracheae are removed under CO2 anesthesia. Excess tissue is removed and each trachea is spirally cut and suspended under 6 g. tension in a tissue bath (37° C.) containing modified Tyrode's solution (pH 7.4) oxygenated with a 95 percent O2 -5 percent CO2 gas mixture. The Tyrodes composition (mmol) is: NaCl, 139.2; KCl, 2.7; MgSO4.7H2 O, 0.49; NaHCO3, 11.9; NaH2 PO4.H2 O, 0.4; CaCl2.2H2 O, 1.8 and glucose, 5.5. Tracheae are allowed to equilibrate for 90 minutes before exposure to agonists or drugs.
A response to histamine is elicited at two bath concentrations (1×10^-6 M and 1×10^-4 M). The lower concentration primes the tissue and is allowed a 5 minute contact period. The higher concentration (10 minute exposure) produces a maximal response for the tissue. In each case, the bath fluid is replaced and the tissue is washed two times with fresh Tyrode solution. Compounds tested are introduced into the bath to produce a 10^-4 M concentration twenty minutes after the second histamine treatment (subsequent testing at 10^-5 and 10^-6 M bath concentrations are employed in dose-response analyses). Ovalbumin (8 μg/ml) is introduced into the bath ten minutes later.
The contracture curve following antigen challenge is compared with the maximal histamine response at 10 minute time intervals up to 90 minutes and the responses are expressed as percentage inhibition. The area under the curve is calculated for each time period. […] The EC50 is calculated from the area under the curve values at 90 minutes to define the effective concentration of test compound which produces a 50 percent reduction in area under the curve compared to control tissues.

[2] = tested on: anaphylactic tissue response; assay: anaphylactic tissue response / leucotriene activity of nitro substituted compounds; format: cell-based
SRS-A = conditions: J.Med.Chem. 20 371 (1977); cited from earlier work
[3] = tested on: guinea pig lung parenchyma strips; assay: Schultz-Dale reaction, guinea pig lung parenchyma strips, ovalbumin challenge; format: cell-based; conditions: Cavia porcellus, 1 h, at 60 minutes, read-out: Parenchymal Strips % Inhibition at 60 minutes; for inhibition at 100 µM: 10^-4 M
Description: as §1
Following the same basic procedure, guinea pig lung parenchyma strips (25×3×3 mm) dissected along the distal edges of two different lobes are suspended under 1 g. tension in the tissue bath. Equilibration in the Tyrode solution is conducted for 45 minutes with complete solution changes at 15 minute intervals. Maximal contraction induced with histamine (50 μM) primes the tissue. Five minutes later, the bath fluid is exchanged two times and the tissues are allowed to equilibrate 15 minutes longer. The test compound is then introduced into the bath to give a 10^-4 M solution. Five minutes later the ovalbumin challenge (8 μg/ml) is given. The data is collected at ten minute intervals up to 60 minutes and analysed as with the guinea pig trachea technique.

[4] = target: T1, (Cavia porcellus, UniProt Q2NNR5); assay: Schultz-Dale reaction, guinea pig ileal tissue, inhibition of leucotriene D4; format: cell-based; conditions: Schultz-Dale reaction employing guinea pig ileal tissue; read-out: pA2 as inhibitor of leucotriene D4 (converted)
T1 construct: employing guinea pig ileal tissue; from tissue; host or cells: guinea pig ileum
T1 sequence (Q2NNR5 1-340): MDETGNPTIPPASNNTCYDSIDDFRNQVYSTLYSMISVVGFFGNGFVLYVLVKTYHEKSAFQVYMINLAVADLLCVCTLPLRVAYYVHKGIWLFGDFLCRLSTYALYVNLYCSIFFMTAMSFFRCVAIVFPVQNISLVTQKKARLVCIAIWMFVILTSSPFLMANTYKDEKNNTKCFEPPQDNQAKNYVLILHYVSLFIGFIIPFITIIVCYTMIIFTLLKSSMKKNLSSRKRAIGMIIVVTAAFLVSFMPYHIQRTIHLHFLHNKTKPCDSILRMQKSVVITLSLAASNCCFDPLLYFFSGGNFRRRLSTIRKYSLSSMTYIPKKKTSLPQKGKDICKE

[5] = 1.5 h, 10^-4 M, at 90 minutes, read-out: Tracheal Spirals % Inhibition at 90 minutes
[6] = 1.5 h, 50 percent reduction in area under the curve at 90 minutes, read-out: Tracheal Spirals EC50

SMILES	inhibition at 100 µM [1, 5]	inhibition at 10 µM ([1]; 1.5 h, at 90 minutes)	inhibition at 1 µM ([1]; 1.5 h, at 90 minutes)	EC50 [1, 6]	other results
CCCc1c(OCC(O)COc2cccc(N)c2C#N)ccc(C(C)=O)c1O (centres unmarked) [Example 1, 2-[3-(4-Acetyl-3-hydroxy-2-propylphenoxy)-2-hydroxypropoxy]-6-aminobenzonitrile]	64.2%	45.7%	20.6%	20 µM	
CCCc1c(OCC(O)CNc2cccc(N)c2C(N)=O)ccc(C(C)=O)c1O (centres unmarked) [Example 9, 2-[3-(4-Acetyl-3-hydroxy-2-propylphenoxy)-2-hydroxypropyl]amino-6-aminobenzamide]	40.7%				
CCCc1c(OCC(O)CNc2cccc(N)c2C#N)ccc(C(C)=O)c1O (centres unmarked) [Example 6, 2-Amino-6-[[3-(4-acetyl-3-hydroxy-2-propylphenoxy)-2-hydroxypropyl]amino]benzonitrile]	38.8%				
CCCc1c(OCC(O)CNc2cccc(NC(=O)C(=O)O)c2C#N)ccc(C(C)=O)c1O (centres unmarked) [Example 8, [[[3-[3-(4-Acetyl-3-hydroxy-2-propylphenoxy)-2-hydroxypropyl]amino]-2-cyanophenyl]amino]oxoacetic acid sodium salt]	63.5%	37.5%	28.4%	25 µM	
CCCc1c(OCC(O)CNc2cccc(NC(=O)C(=O)OCC)c2C#N)ccc(C(C)=O)c1O (centres unmarked) [Example 7, [[[3-[3-(4-acetyl-3-hydroxy-2-propylphenoxy)-2-hydroxypropyl]amino]-2-cyanophenyl]amino]oxoacetic acid ethyl ester]	63.8%	39.3%	2.64%	30 µM	
CCCc1c(OCC(O)COc2cccc(NC(=O)C(=O)OCC)c2)ccc(C(C)=O)c1O (centres unmarked) [Example 5, [[3-[3-(4-Acetyl-3-hydroxy-2-propylphenoxy)-2-hydroxypropoxy]phenyl]amino]oxoacetic acid ethyl ester]	53%	22.8%	8.57%	97 µM	
CCCc1c(OCC(O)CNc2cccc([N+](=O)[O-])c2C#N)ccc(C(C)=O)c1O (centres unmarked) [2-[[3-(4-acetyl-3-hydroxy-2-propylphenoxy)-2-hydroxypropyl]amino]-6-nitrobenzonitrile]					effect on anaphylactic tissue response [2]: potentiator of the anaphylactic tissue response
CCCc1c(OCC(O)COc2cccc(N)c2)ccc(C(C)=O)c1O (centres unmarked) [Example 4, 1-[2-Hydroxy-3-propyl-4-[2-hydroxy-3-(3-aminophenoxy)propoxy]phenyl]ethanone]	76.2%	9.07%	4.98%	36 µM	
CCCc1c(OCC(O)COc2ccc3c(=O)cc(C(=O)[O-])oc3c2CCC)ccc(C(C)=O)c1O.[Na+] (centres unmarked) [FPL 55712, sodium 7-[3-(4-acetyl-3-hydroxy-2-propylphenoxy)-2-hydroxypropoxy]-4-oxo-8-propyl-4H-1-benzopyran-2-carboxylate]					antagonism of SRS-A (SRS-A): specific antagonist of SRS-A
CC(=O)c1ccc(OCC(O)COc2cccc([N+](=O)[O-])c2)cc1O (centres unmarked) [Example 10, 1-[2-Hydroxy-4-[2-hydroxy-3-(3-nitrophenoxy)propoxy]phenyl]ethanone]					inhibition at 100 µM ([1]; 10^-4 M concentration, sensitized guinea pig trachea, read-out: percent inhibition in the Schultz-Dale reaction): 62%; EC50 ([1]; sensitized guinea pig trachea, read-out: EC50 in the Schultz-Dale reaction): 76 µM
CCCc1c(OCC(O)COc2cccc(NC(=O)C(=O)OCC)c2C#N)ccc(C(C)=O)c1O (centres unmarked) [Example 2, [[3-[3-(4-Acetyl-3-hydroxy-2-propylphenoxy)-2-hydroxypropoxy]-2-cyanophenyl]amino]oxoacetic acid ethyl ester]	73%	63%	18.8%	8.7 µM	inhibition at 100 µM [3]: 65.5%; inhibition at 10 µM ([3]; 10^-5 M): 2.09%; Kb [4]: 0.000398 µM
CCCc1c(OCC(O)COc2cccc(NC(=O)C(=O)O)c2C#N)ccc(C(C)=O)c1O (centres unmarked) [Example 3, [[3-[-(4-Acetyl-3-hydroxy-2-propylphenoxy)-2-hydroxypropoxy]-2-cyanophenyl]amino]oxoacetic acid sodium salt]	62.1%	21.5%	12.8%	53 µM	inhibition at 100 µM [3]: 22.9%
